Structures can show the parent of a compound that is named as a salt.
Target: T1, human GPR39 receptor (Homo sapiens, UniProt O43194)
T1 construct: PC3 Cells, Expressing the Endogenous Human GPR39 Receptor; endogenous in cells; host or cells: PC3 (human prostate adenocarcinoma) cells
T1 sequence (O43194 1-453): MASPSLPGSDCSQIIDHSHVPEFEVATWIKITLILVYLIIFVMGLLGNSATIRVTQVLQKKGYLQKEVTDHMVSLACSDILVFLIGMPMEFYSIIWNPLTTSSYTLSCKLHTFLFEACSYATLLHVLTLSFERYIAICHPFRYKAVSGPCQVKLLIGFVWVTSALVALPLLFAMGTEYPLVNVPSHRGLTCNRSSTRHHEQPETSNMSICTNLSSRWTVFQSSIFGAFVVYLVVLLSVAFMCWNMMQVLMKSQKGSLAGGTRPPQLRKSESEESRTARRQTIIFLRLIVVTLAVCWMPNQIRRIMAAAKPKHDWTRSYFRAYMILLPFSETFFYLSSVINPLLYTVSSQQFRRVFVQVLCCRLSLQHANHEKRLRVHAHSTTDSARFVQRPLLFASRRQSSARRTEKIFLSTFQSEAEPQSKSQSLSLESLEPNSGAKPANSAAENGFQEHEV
Assay: Measurement of intracellular calcium response in PC3 cells (FLIPR), antagonism of the C3 agonist response
Assay type: cell-based
Settings: functional pKi (modified Cheng-Prusoff), inhibition of the C3 (TC-G 1008) response at EC90, 30 μM ZnCl2, read-out: fpKi activity
How it was run: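 PC3 cells with endogenous human GPR39 were loaded with Calcium-6 and read by FLIPR, with compounds tested in buffer with 30 μM final ZnCl2 and 0.32% DMSO. Peak Ca2+ signal was scored as % inhibition of the EC90 C3 response, fitted by four-parameter logistic. Functional pKi was derived via the modified Cheng-Prusoff equation.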

Row | Structure (SMILES) | Ki [nM]
1 | CCCN1CCN(C(=O)c2ccc(NC(=O)C3CC3)cc2N2CCC(F)(F)CC2)CC1 [Example 7, N-(3-(4,4-difluoropiperidin-1-yl)-4-(4-propylpiperazine-1-carbonyl)phenyl) cyclopropanecarboxamide] | 1260 to 6310
2 | CN1CCN(C(=O)c2ccc(NC(=O)C3CC3)nc2N2CCCCC2)C(c2ccccc2)C1 (racemic) [Example 147, N-[5-(4-methyl-2-phenylpiperazine-1-carbonyl)-6-piperidin-1-ylpyridin-2-yl]cyclopropanecarboxamide] | 63.1 to 251
3 | CN1CCN(C(=O)c2ccc(NC(=O)C3CC3)cc2-n2cc(C(F)(F)F)cn2)C(c2ccccc2)C1 (stereo not drawn) [Example 207, N-[4-(4-methyl-2-phenylpiperazine-1-carbonyl)-3-[4-(trifluoromethyl)pyrazol-1-yl]phenyl]cyclopropanecarboxamide] | 316 to 1000
4 | CCCN1CCN(C(=O)c2ccc(NC(=O)C3CC3)cc2-n2ccc(C)n2)CC1 [Example 8, N-(3-(3-methyl-1H-pyrazol-1-yl)-4-(4-propylpiperazine-1-carbonyl)phenyl)cyclopropanecarboxamide] | 63.1 to 251
5 | O=C(Nc1ccc(C(=O)N2CCN(C3CCCC3)CC2)c(N2CCCCCC2)c1)C1CC1 [Example 53, N-[3-(azepan-1-yl)-4-(4-cyclopentylpiperazine-1-carbonyl)phenyl]cyclopropanecarboxamide] | 316 to 1000
6 | Cc1nnc(-c2ccc(C(=O)N3CCC(F)(F)CC3)c(-n3ccc(C(F)(F)F)n3)c2)[nH]1 [Example 208] | ≤ 50.1
7 | CN1CCN(C(=O)c2ccc(NC(=O)C3CC3)cc2N2CCCC2)C(c2cccnc2)C1 (racemic) [Example 173, N-[4-(4-methyl-2-pyridin-3-ylpiperazine-1-carbonyl)-3-pyrrolidin-1-ylphenyl]cyclopropanecarboxamide] | 316 to 1000
8 | O=C(Nc1ccc(C(=O)N2CCN(Cc3ncco3)CC2)c(N2CCCCCC2)c1)C1CC1 [Example 24, N-(3-(azepan-1-yl)-4-(4-(oxazol-2-ylmethyl)piperazine-1-carbonyl)phenyl) cyclopropanecarboxamide] | 63.1 to 251
9 | CN1CCN(C(=O)c2ccc(NC(=O)C3CC3)cc2N2CCOCC2)C(c2ccccc2)C1 (stereo not drawn) [Example 200, N-[4-(4-methyl-2-phenylpiperazine-1-carbonyl)-3-morpholin-4-ylphenyl]cyclopropanecarboxamide] | 1260 to 6310
10 | CC1CN(c2cc(NC(=O)C3CC3)ccc2C(=O)N2CCS(=O)(=O)CC2)CC(C)O1 (racemic) [Example 188, N-[3-[(anti)-2,6-dimethylmorpholin-4-yl]-4-(1,1-dioxo-1,4-thiazinane-4-carbonyl)phenyl]cyclopropanecarboxamide] | 1260 to 6310
11 | CN1CCN(C(=O)c2ccc(NC(=O)C3CC3)nc2N2CCCC(F)(F)C2)C(c2ccccc2)C1 (racemic) [Example 144, N-[6-(3,3-difluoropiperidin-1-yl)-5-(4-methyl-2-phenylpiperazine-1-carbonyl)pyridin-2-yl]cyclopropanecarboxamide] | 63.1 to 251
12 | CN(C)CCSc1nnc(-c2ccc(NC(=O)C3CC3)cc2N2CCCCCC2)n1C [Example 111, N-[3-(azepan-1-yl)-4-[5-[2-(dimethylamino)ethylsulfanyl]-4-methyl-1,2,4-triazol-3-yl]phenyl]Cyclopropanecarboxamide] | 1260 to 6310
13 | CCCN1CCN(C(=O)c2ccc(NC(=O)C3CC3)cc2N2CCC(C)CC2)CC1 [Example 15, N-(3-(4-methylpiperidin-1-yl)-4-(4-propylpiperazine-1-carbonyl)phenyl) cyclopropanecarboxamide] | 63.1 to 251
14 | CN1CCN(C(=O)c2ccc(NC(=O)C3CC3)nc2N2CCC(F)(F)CC2)C(c2ccccc2)C1 (racemic) [Example 146, N-[6-(4,4-difluoropiperidin-1-yl)-5-(4-methyl-2-phenylpiperazine-1-carbonyl)pyridin-2-yl]cyclopropanecarboxamide] | 63.1 to 251
15 | CCCN1CCN(C(=O)c2ccc(NC(=O)C3CC3)cc2N2CCC(C)(C)CC2)CC1 [Example 17, N-(3-(4,4-dimethylpiperidin-1-yl)-4-(4-propylpiperazine-1-carbonyl)phenyl)cyclopropanecarboxamide] | 63.1 to 251
16 | C[C@@H]1C[C@H](C)CN(c2cc(NC(=O)C3CC3)ccc2C(=O)N2CCS(=O)(=O)CC2)C1 [Example 67, Syn N-[3-[-3,5-dimethylpiperidin-1-yl]-4-(1,1-dioxo-1,4-thiazinane-4-carbonyl)phenyl]Cyclopropanecarboxamide] | ≤ 50.1
17 | O=C(Nc1ccc(C(=O)N2CCN(Cc3ncco3)CC2c2ccccc2)c(N2CCCCCC2)c1)C1CC1 (stereo not drawn) [Example 83, N-[3-(azepan-1-yl)-4-[4-(1,3-oxazol-2-ylmethyl)-2-phenylpiperazine-1-carbonyl]phenyl]cyclopropanecarboxamide] | 63.1 to 251
18 | O=C(Nc1ccc(C(=O)N2CCS(=O)(=O)CC2)c(N2CCCC3(CC3)C2)c1)C1CC1 [Example 189, N-[3-(5-azaspiro[2.5]octan-5-yl)-4-(1,1-dioxo-1,4-thiazinane-4-carbonyl)phenyl]cyclopropanecarboxamide] | 63.1 to 251
19 | CCCN1CCN(C(=O)c2ccc(-c3nnc(C4CC4)[nH]3)cc2N2CCCCCC2)CC1 [Example 118, [2-(azepan-1-yl)-4-(5-cyclopropyl-4H-1,2,4-triazol-3-yl)phenyl]-(4-propylpiperazin-1-yl)methanone] | 316 to 1000

Further lines, results first:

Row | Ki [nM] | Structure (SMILES)
20 | 316 to 1000 | C[C@@H]1C[C@@H](C)CN(c2cc(NC(=O)C3CC3)ccc2-c2ncc3n2CCN(C)C3)C1 (relative stereo) [Example 104a, N-[3-(3,5-dimethylpiperidin-1-yl)-4-(7-methyl-6,8-dihydro-5H-imidazo[1,5-a]pyrazin-3-yl)phenyl] cyclopropanecarboxamide]
21 | 63.1 to 251 | CN1CCN(C(=O)c2ccc(NC(=O)C3CC3)cc2N2CCC(F)(F)C2)C(c2ccccc2)C1 (racemic) [Example 202c, N-[3-(3,3-difluoropyrrolidin-1-yl)-4-(4-methyl-2-phenylpiperazine-1-carbonyl)phenyl]cyclopropanecarboxamide]
22 | ≤ 50.1 | O=C(Nc1ccc(C(=O)N2CCS(=O)(=O)CC2)c(N2CCCC(C(F)(F)F)C2)c1)C1CC1 (single isomer, unassigned) [Example 185b, N-[4-(1,1-dioxo-1,4-thiazinane-4-carbonyl)-3-[3R or 3S-(trifluoromethyl)piperidin-1-yl]phenyl]cyclopropanecarboxamide]
23 | ≤ 50.1 | CN1CCN(C(=O)c2ccc(NC(=O)C3CC3)cc2N2CCC(C(F)(F)F)C2)C(c2ccccc2)C1 (single isomer, unassigned) [Example 199e, (2S, 3R) or (2R, 3S) or (2R, 3R) or (2S, 3S) N-[4-(4-methyl-2-phenylpiperazine-1-carbonyl)-3-[3-(trifluoromethyl)pyrrolidin-1-yl]phenyl]cyclopropanecarboxamide hydrochloride]
24 | 63.1 to 251 | CN1CCN(C(=O)c2ccc(NC(=O)C3CC3)cc2N2CCCC2)C(c2cccc(F)c2)C1 (single isomer, unassigned) [Example 88a, N-[4-[2-(3-fluorophenyl)-4-methylpiperazine-1-carbonyl]-3-pyrrolidin-1-ylphenyl]cyclopropanecarboxamide]
25 | 316 to 1000 | Cc1ccn(-c2cc(NC(=O)C3CC3)ccc2C(=O)N2CCN(C)CC2c2ccccc2)n1 (racemic) [Example 155c, N-[4-(4-methyl-2-phenylpiperazine-1-carbonyl)-3-(3-methylpyrazol-1-yl)phenyl]cyclopropanecarboxamide]
26 | 1260 to 6310 | CCCN1CCN(C(=O)c2ccc(NC(=O)C3CC3)cc2N2CCCCCC2)C(c2ccccc2)C1 (single isomer, unassigned) [Example 73b, N-[3-(azepan-1-yl)-4-(2-phenyl-4-propylpiperazine-1-carbonyl)phenyl]Cyclopropanecarboxamide]
27 | 63.1 to 251 | CN1CCN(C(=O)c2ccc(NC(=O)C3CC3)nc2N2CCC(F)(F)C2)C(c2ccccc2)C1 (racemic) [Example 148c, N-[6-(3,3-difluoropyrrolidin-1-yl)-5-(4-methyl-2-phenylpiperazine-1-carbonyl)pyridin-2-yl]cyclopropanecarboxamide]
28 | ≤ 50.1 | CN1CCN(C(=O)c2ccc(NC(=O)C3CC3)cc2N2CCCCCC2)C(c2cccs2)C1 (racemic) [Example 69c, N-(3-(azepan-1-yl)-4-(4-methyl-2-(thiophen-2-yl)piperazine-1-carbonyl)phenyl) cyclopropane carboxamide]
29 | 63.1 to 251 | C[C@@H]1C[C@@H](C)CN(c2cc(NC(=O)C3CC3)ccc2-c2nnc(Sc3ccccc3)n2C)C1 (relative stereo) [Example 114a, N-[3-(3,5-dimethylpiperidin-1-yl)-4-(4-methyl-5-phenylsulfanyl-1,2,4-triazol-3-yl)phenyl]cyclopropanecarboxamide]
30 | 316 to 1000 | CC1CC(C)CN(c2cc(NC(=O)C3CC3)ccc2C(=O)N2CCN(C)CC2c2ccccc2)C1 (single isomer, unassigned) [Example 68b, Syn 2R or 2S N-[3-[3,5-dimethylpiperidin-1-yl]-4-(4-methyl-2-phenylpiperazine-1-carbonyl)phenyl] cyclopropanecarboxamide]
